Data taken from ChEMBL document CHEMBL1153125, “Benzylidene cyclopentenediones: First irreversible inhibitors against botulinum neurotoxin A's zinc endopeptidase” (Bioorg Med Chem Lett, 2010).

Assays:
[1] = molecular target: Botulinum neurotoxin type A (Clostridium botulinum, UniProt P0DPI0); assay: Inhibition of Clostridium botulinum BoNT/A
[2] = molecular target: Botulinum neurotoxin type A (Clostridium botulinum) (UniProt P0DPI0); assay: Ratio of Kinact to Ki for Clostridium botulinum BoNT/A
[3] = molecular target: Matrix metalloproteinase-9 (Homo sapiens) (UniProt P14780); assay: Ratio of Kinact to Ki for MMP9
[4] = Selectivity for Clostridium botulinum BoNT/A over MMP9
[5] = molecular target: 72 kDa type IV collagenase (Homo sapiens) (UniProt P08253); assay: Ratio of Kinact to Ki for MMP2
Chain of 72 kDa type IV collagenase (Homo sapiens) (P08253 110-660 limits assumed): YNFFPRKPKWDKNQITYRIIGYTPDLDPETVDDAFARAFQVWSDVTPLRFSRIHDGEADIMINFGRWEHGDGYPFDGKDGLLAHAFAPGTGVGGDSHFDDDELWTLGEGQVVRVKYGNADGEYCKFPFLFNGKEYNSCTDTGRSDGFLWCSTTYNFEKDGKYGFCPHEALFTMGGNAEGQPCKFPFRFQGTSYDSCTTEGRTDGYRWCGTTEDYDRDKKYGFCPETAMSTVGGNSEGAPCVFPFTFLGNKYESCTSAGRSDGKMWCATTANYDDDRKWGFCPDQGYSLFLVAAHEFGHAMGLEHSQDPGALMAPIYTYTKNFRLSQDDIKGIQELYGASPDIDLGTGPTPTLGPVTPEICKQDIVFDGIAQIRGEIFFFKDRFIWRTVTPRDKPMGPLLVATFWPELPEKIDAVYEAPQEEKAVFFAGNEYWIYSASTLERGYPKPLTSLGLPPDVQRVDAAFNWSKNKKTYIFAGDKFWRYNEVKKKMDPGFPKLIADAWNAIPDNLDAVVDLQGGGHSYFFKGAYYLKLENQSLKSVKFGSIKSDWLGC

Chain of Botulinum neurotoxin type A (Clostridium botulinum) (P0DPI0 2-448 limits assumed): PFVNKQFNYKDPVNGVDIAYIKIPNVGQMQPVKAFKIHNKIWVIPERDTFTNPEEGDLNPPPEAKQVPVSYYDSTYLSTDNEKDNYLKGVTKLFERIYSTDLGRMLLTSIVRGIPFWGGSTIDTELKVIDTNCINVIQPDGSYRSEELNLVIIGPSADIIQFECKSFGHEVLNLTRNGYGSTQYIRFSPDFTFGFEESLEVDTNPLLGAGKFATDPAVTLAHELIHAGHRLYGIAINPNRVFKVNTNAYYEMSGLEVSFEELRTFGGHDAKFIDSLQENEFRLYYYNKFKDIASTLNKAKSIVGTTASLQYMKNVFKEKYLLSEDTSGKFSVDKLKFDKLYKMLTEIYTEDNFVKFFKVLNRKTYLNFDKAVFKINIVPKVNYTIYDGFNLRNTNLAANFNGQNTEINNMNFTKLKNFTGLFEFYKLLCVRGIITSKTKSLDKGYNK
Chain of Matrix metalloproteinase-9 (Homo sapiens) (P14780 whole entry): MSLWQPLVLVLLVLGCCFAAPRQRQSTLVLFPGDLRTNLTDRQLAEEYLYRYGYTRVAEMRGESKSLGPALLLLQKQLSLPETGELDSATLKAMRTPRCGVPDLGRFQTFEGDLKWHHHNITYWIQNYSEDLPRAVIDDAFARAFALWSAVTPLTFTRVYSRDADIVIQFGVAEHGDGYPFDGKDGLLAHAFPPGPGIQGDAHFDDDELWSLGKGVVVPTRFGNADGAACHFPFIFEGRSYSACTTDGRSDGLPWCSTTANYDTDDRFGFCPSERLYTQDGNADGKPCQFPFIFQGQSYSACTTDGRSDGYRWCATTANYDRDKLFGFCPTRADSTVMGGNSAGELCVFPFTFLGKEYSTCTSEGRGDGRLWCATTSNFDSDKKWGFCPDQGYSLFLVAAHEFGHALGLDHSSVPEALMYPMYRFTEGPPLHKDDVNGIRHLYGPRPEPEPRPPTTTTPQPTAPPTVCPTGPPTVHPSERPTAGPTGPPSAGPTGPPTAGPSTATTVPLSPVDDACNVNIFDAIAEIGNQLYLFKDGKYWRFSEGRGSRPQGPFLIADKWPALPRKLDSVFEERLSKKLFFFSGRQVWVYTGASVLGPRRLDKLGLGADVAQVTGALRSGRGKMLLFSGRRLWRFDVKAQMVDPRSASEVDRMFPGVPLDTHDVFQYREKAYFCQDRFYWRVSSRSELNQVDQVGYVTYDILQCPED
Chain of Botulinum neurotoxin type A (P0DPI0 2-448 limits assumed): as the sequence (P0DPI0 2-448 limits assumed) above

SMILES	IC50 [1] [µM]	Ratio [2]	Ratio [3]	Selectivity ratio [4]	Ratio [5]
CCCCCc1ccc(C(=O)NO)cc1	41				
Cc1cc(Cl)ccc1/C=C/C(=O)NO	0.8				
CCCCCc1ccc(C=C2C(=O)C=CC2=O)cc1		80			
Cc1cc(Cl)ccc1C=C1C(=O)C=CC1=O		580	58	9	
O=C1C=CC(=O)C1=Cc1ccc(Cl)cc1Cl		520	61	9	< 33
